From PMC12263422, “Cryo-EM structure of the human THIK-1 K2P K^+ channel reveals a lower Y gate regulated by lipids and anesthetics” (Nature Structural & Molecular Biology, 2025)
Values joined by “and” are separate entries in the source; they are usually repeats but may differ in a detail not shown here. Equal values may be shown once.

What was measured:
WT THIK-1 (without M1R) = biological target: T1, WT THIK-1 (without M1R) (Homo sapiens, UniProt Q9HB14); assay: Whole-cell currents in HEK-293 cells with Oxo-M, WT THIK-1 without M1R; format: cell-based; conditions: THIK-1 WT (no M1R)
T1 construct: expressed in transfected cells; host or cells: HEK-293
T1 sequence (Q9HB14 whole entry): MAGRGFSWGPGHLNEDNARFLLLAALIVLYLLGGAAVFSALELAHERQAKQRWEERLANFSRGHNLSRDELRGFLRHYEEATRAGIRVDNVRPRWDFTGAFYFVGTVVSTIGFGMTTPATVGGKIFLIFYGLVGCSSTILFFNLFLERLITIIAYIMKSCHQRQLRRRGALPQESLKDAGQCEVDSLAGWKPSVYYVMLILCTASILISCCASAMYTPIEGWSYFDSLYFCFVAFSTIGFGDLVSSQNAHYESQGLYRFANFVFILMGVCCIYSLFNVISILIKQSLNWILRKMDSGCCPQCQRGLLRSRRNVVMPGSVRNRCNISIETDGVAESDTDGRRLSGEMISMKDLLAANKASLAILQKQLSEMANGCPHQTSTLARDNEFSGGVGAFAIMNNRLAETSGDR
Excerpt: Supplement 41594_2025_1497_MOESM2_ESM.xlsx, sheet "ExtData_Fig_S2e" | column: Maximal currents with Oxo-M (%); WT

[1] = tested on: WT THIK-1 (coexpressed with hM1R); assay: Whole-cell currents in transiently transfected HEK-293 cells, GqPCR (hM1-R) mediated activation by Oxo-M, WT THIK-1; format: cell-based, human; conditions: for activation by Oxo-M: 10 μM Oxo-M; for Maximal currents with Oxo-M: THIK-1 WT + M1R
Experimental: (§1) Two-electrode voltage–clamp (TEVC) studies were performed in Xenopus oocytes. All animal use conformed to the Guide for the Care and Use of Laboratory Animals (NIH Publication 85–23), and all experiments using Xenopus toads were approved by the local ethics panels. Oocytes were stored at 17 °C in ND96 recording solution composed of (in mM): 96 NaCl, 2 KCl, 1.8 CaCl2, 1 MgCl2, 5 HEPES (pH 7.5 adjusted with NaOH and HCl), supplemented with Na-pyruvate (275 mg L^–1), theophylline (90 mg L^–1) and gentamicin (50 mg L^–1). Oocytes were injected with 1 ng mRNA for WT or mutant channels, and were incubated for 24–48 h at 17 °C. Two-electrode voltage clamp recordings were then performed as previously described[42],[43]. For macroscopic patch–clamp measurements, oocytes were obtained as described above incubated at 17 °C in a solution containing (mM): 54 NaCl, 30 KCl, 2.4 NaHCO3, 0.82 MgSO4 ×7 H2O, 0.41 CaCl2, 0.33 Ca(NO3)2 ×4 H2O and 7.5 TRIS (pH 7.4 adjusted with NaOH and HCl) for 1–4 days before use. Excised patch recordings in inside-out configuration conditions were performed at room temperature. Patch pipettes were made from thick-walled borosilicate glass GB 200TF-8P (Science Products), had resistances of 0.2–0.5 MΩ (tip diameter, 10–25 µm) and filled with a pipette solution (in mM): 120 KCl, 10 HEPES and 3.6 CaCl2 (pH 7.4 adjusted with KOH and HCl). Intracellular bath solutions and compounds were applied to the cytoplasmic side of excised patches for the various K^+ channels through a gravity flow multi-barrel pipette system. The intracellular solution had the following composition (in mM): 120 KCl, 10 HEPES, 2 EGTA and 1 pyrophosphate (pH adjusted with KOH and HCl). Currents were recorded with an EPC10 amplifier (HEKA Electronics) and sampled at 10 kHz or higher, with filtering set to 3 kHz (–3 dB) or higher, as appropriate for sampling rate. For measurements of GPCR activation, whole-cell currents were recorded for THIK-1 in transiently transfected HEK-293 cells. Cells were stimulated by a ramp protocol between −100 and +60 mV (holding potential, −80 mV). The pipette solution was composed of (in mM): 140 KCl, 2 MgCl2, 1 CaCl2, 2.5 EGTA and 10 HEPES (pH 7.3 adjusted with KOH and HCl). The extracellular bath solution had the following composition (in mM): 135 NaCl, 5 KCl, 2 MgCl2, 2 CaCl2, 10 glucose and 10 HEPES pH (pH 7.3 adjusted with NaOH and HCl). Oxotremorine M (Oxo-M) was added to extracellular bath solution to obtain the final concentration. Single-channel currents were recorded with an Axopatch 200B amplifier through a Digidata 1440A digitizer (Molecular Devices). Data were filtered at 2 kHz and recorded at a 200-kHz sampling rate with the program Clampex (Molecular Devices). […]

[2] = tested on: THIK-1-Y273A (coexpressed with hM1R); assay: Whole-cell currents in transiently transfected HEK-293 cells, GqPCR (hM1-R) mediated activation by Oxo-M, THIK-1-Y273A; format: cell-based, human; conditions: for Maximal currents with Oxo-M: THIK-1 Y273A + M1R
Experimental: as §1, with “The intracellular solution had the following composition (in mM): 120 KCl, 10 HEPES, 2 EGTA and 1 pyrophosphate (pH adjusted with KOH and HCl).” left out, “Cells were stimulated by a ramp protocol between −100 and +60 mV (holding potential, −80 mV). The pipette solution was composed of (in mM): 140 KCl, 2 MgCl2, 1 CaCl2, 2.5 EGTA and 10 HEPES (pH 7.3 adjusted with KOH and HCl). The extracellular bath solution had the following composition (in mM): 135 NaCl, 5 KCl, 2 MgCl2, 2 CaCl2, 10 glucose and 10 HEPES pH (pH 7.3 adjusted with NaOH and HCl). Oxotremorine M (Oxo-M) was added to extracellular bath solution to obtain the final concentration.” left out

C[N+](C)(C)CC#CCN1CCCC1=O [Oxo-M, Oxotremorine M]
Maximal currents with Oxo-M (WT THIK-1 (without M1R); individual recordings): 87.670% and 72.140% and 84.570% and 69.740% and 73.820% and 88.800% and 69.120% and 93.710% and 101.590% and 90.590% and 96.720% and 154.730% and 88.450%
Maximal currents with Oxo-M (WT THIK-1 (without M1R); mean): 90.13%
activation by Oxo-M ([1]; WT THIK-1 with hM1-R): ~ 50%
activation by Oxo-M ([1]; in the absence of hM1-R): no activation
Maximal currents with Oxo-M ([1]; individual recordings): 172.080% and 208.230% and 131.370% and 127.470% and 125.270% and 149.760% and 113.980% and 121.900% and 146.330% and 151.430% and 123.170% and 131.250% and 181.580% and 173.780% and 155.620% and 228.290% and 290.820% and 139.180% and 66.330% and 107.180% and 88.700%
Maximal currents with Oxo-M ([1]; mean): 149.22%
activation by Oxo-M ([2]; 10 μM Oxo-M, THIK-1-Y273A): no activation
Maximal currents with Oxo-M ([2]; individual recordings): 93.100% and 97.920% and 94.800% and 93.870% and 99.320% and 100.290%
Maximal currents with Oxo-M ([2]; mean): 96.55%
